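Step 1: Grow cells in 96-well plates. Step 2: Expose to compound for 48 hours at 5 concentrations. Step 3: Interpolate endpoints linearly; if unreached, use highest concentration. TGI: total growth inhibition.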
Key:
Assay in all cases: NCI-60 cell line screen, 48 h
[1] = tested on: NCI-H522 lung
[2] = tested on: HOP-92 NSCLC
[3] = tested on: NCI-H23 lung
[4] = tested on: SN12C renal
[5] = tested on: SR leukemia
[6] = tested on: MDA-MB-435
[7] = tested on: RPMI-8226 leukemia
[8] = tested on: OVCAR-3 ovarian
[9] = tested on: NCI-H226 lung
[10] = tested on: NCI-H460 lung
[11] = tested on: UACC-62 melanoma
[12] = tested on: HCT-116 colon
[13] = tested on: PC-3 prostate
[14] = tested on: KM12 colon
[15] = tested on: EKVX NSCLC
[16] = tested on: OVCAR-8 ovarian
[17] = tested on: MDA-N
[18] = tested on: SK-OV-3 ovarian
[19] = tested on: K-562 leukemia

Row | Compound | TGI [1] [µM] | TGI [2] [µM] | TGI [3] [µM] | TGI [4] [µM] | TGI [5] [µM] | TGI [6] [µM] | TGI [7] [µM] | TGI [8] [µM] | TGI [9] [µM] | TGI [10] [µM] | TGI [11] [µM] | TGI [12] [µM] | TGI [13] [µM] | TGI [14] [µM] | TGI [15] [µM] | TGI [16] [µM] | TGI [17] [µM] | TGI [18] [µM] | TGI [19] [µM]
1 | COc1ccc(P2(=S)SP(=S)(c3ccc(Cl)cc3)S2)cc1 (stereo unspecified) | > 100 | > 100 | > 100 | > 100 | > 100 | > 100 | > 100 | > 100 | > 100 | > 100 | > 100 | > 100 | > 100 | > 100 | > 100 | > 100 | > 100 | > 100 | 
2 | Cc1cc(C)c2c(c1)C1=NCCN1C2(O)c1ccc(Cl)cc1 (stereo unspecified) |  | 28.6 | 33.1 | 30.3 | 62 | 32.5 | 33.2 | 31.4 |  | 29.3 | 29.4 | 26 | 36.3 | 30 | 33.3 | 30.2 | 28.3 | 28.5 | 65
3 | COc1ccc(-c2nnc3n(Cc4ccccc4)c4ccccc4n3c2=O)cc1 | 80.7 | 95 | > 100 | > 100 | > 100 | > 100 |  |  | 97.4 | > 100 |  | > 100 | 32.4 | > 100 | > 100 | > 100 | > 100 |  | 
4 | COc1ccc(/C=C/C(=N/NC(=O)N/N=C(/C=C/c2ccc(OC)cc2)C(C)(C)CN2CCCCC2)C(C)(C)CN2CCCCC2)cc1 | 3.59 | 3.08 | > 10 | 5.83 | 0.679 |  | 4.23 | 3.81 | 3.02 | 3.82 |  | 2.6 | 6.62 | 3.27 | > 10 | 3.4 | 3.06 | 3.49 | 1.89
5 | COC(=O)[C@@]1(Cc2ccc(O)cc2)C[C@@H]2Cc3ccccc3N2N1 | > 100 | > 100 | > 100 | > 100 | > 100 | > 100 | > 100 | > 100 | > 100 |  | > 100 | > 100 | > 100 | > 100 | > 100 | > 100 | > 100 | > 100 | 
6 | OC(c1cc2ccccc2[nH]1)C1(c2cccnc2)SCCCS1 (stereo unspecified) | > 100 | > 100 | > 100 | > 100 | > 100 | > 100 |  |  | > 100 | > 100 | > 100 | > 100 | > 100 | 82 | > 100 | > 100 | > 100 | > 100 | > 100
7 | CCOC(=O)/C(N=Nc1ccc(-n2c(C)nc3ccc(Br)cc3c2=O)cc1)=C(/C)O |  | > 100 | > 100 | > 100 | > 100 | > 100 | > 100 | > 100 | > 100 | > 100 | > 100 | > 100 | > 100 | > 100 | > 100 | > 100 | > 100 | > 100 | > 100
8 | N#CCOc1ccc(/C=C/C(=O)c2ccc(Cl)cc2)cc1 |  | 81.4 | 76.3 | > 100 | > 100 | > 100 | > 100 | > 100 | > 100 | 64.2 | 41.6 | 27.8 | > 100 | 73.5 | > 100 | 93.6 | > 100 | 37.3 | > 100
9 | Cc1ccc(N=C2S/C(=C3/CCC=C3N3CCOCC3)N(c3ccc(Cl)cc3)C2=Nc2ccc(C)cc2)cc1 |  | > 100 | > 100 | > 100 | > 100 |  | > 100 |  | > 100 | > 100 | > 100 | > 100 | > 100 | > 100 | > 100 | > 100 | > 100 |  | > 100
10 | CCOC(=O)C1C(c2ccc(O)c(OC)c2)c2c([nH][nH]c2=O)CC1(C)O (stereo unspecified) | > 100 | > 100 | > 100 | > 100 | > 100 | > 100 | > 100 | > 100 |  |  | > 100 | > 100 | > 100 | > 100 | > 100 | > 100 | > 100 |  | 
11 | CCOC(=O)CSc1nnc(CSc2nc(-c3ccccc3)c(-c3ccccc3)[nH]2)n1-c1ccccc1 | > 100 | > 100 | > 100 | 34.9 | > 100 |  | > 100 | > 100 | > 73.6 | > 100 | 71.6 | > 100 | 43.8 | > 100 | > 100 | 35.3 | > 100 | 43.8 | > 100
12 | COc1c2c(cc3c1OCO3)C13C=CC(OC)CC1N(CC3)C2 (stereo unspecified) | > 100 | > 100 | > 100 | > 100 | 22.2 | > 100 | > 100 | > 100 | > 100 |  | > 100 | > 100 | > 100 | > 100 | > 100 | > 100 | > 100 | > 100 | 
13 | O=C(COc1ccc(OCC(=O)NNC2=NC(c3cc(F)c(Cl)cc3Cl)CS2)c(Cl)c1)NNC1=NC(c2cc(F)c(Cl)cc2Cl)CS1 (stereo unspecified) | 34.5 | > 100 | 50.1 | 43.8 | > 100 | 44.6 | > 100 |  | 46 | > 100 | 40.4 | > 100 | > 100 | > 100 | 77.3 | 64.5 | 92.9 | > 100 | > 100
14 | Cc1ccc(S(=O)(=O)N2c3ccccc3[C@H]3CCC=C[C@H]32)cc1 | 6.35 | 35.4 | 52.3 | > 63.1 | 65.2 |  | 43 | 28.4 | 47.3 | > 64.7 | 42.3 | 19.6 | > 100 | 45.7 | > 92.6 | > 88.5 | > 100 | 28.6 | > 81.3
15 | Cc1cc(=O)[nH]c2cc(NC(=O)C(CCCN=C(N)N)NC(=O)OCc3ccccc3)ccc12 (stereo unspecified) | > 100 | > 100 | > 100 | > 100 | > 100 | > 100 |  | > 100 | > 100 | > 100 | > 100 | > 100 | > 100 | > 100 | > 100 | > 100 | > 100 | 25.6 | > 100
16 | CCOC(=O)C1=c2[nH]c3cccc4cccc(c43)n2C(=O)CC1c1ccccc1 (stereo unspecified) | > 100 | > 100 | > 100 | > 100 | > 100 | > 100 | > 100 |  | > 100 | > 100 | > 100 | > 100 | > 100 | > 100 | > 100 | > 100 | > 100 | > 100 | > 100
17 | CSc1cc(Br)ccc1-n1c(C(=O)c2ccccc2)c(SC)n(-c2ccccc2)c1=O | > 100 | > 100 | > 100 | > 100 | > 100 |  |  | > 100 | > 100 | > 100 | > 100 | > 100 | > 100 | > 100 | > 100 | > 100 | > 100 | > 100 | > 100
18 | O=C(CC(C(=O)c1cccs1)c1cccs1)c1ccccc1Cl (stereo unspecified) |  |  | > 100 | > 100 | > 100 | > 100 | > 100 |  | > 100 | > 100 | > 100 | > 100 | > 100 | > 100 | > 100 | > 100 | > 100 | > 100 | > 100
19 | O=C(O)CC1NC(/C(=C/c2ccccc2O)NC(=O)c2ccccc2)OC1=O (stereo unspecified) | > 100 | > 100 | > 100 | > 100 |  | > 100 | > 100 | > 61.2 | > 79.5 | > 100 | > 100 | > 100 | > 100 | > 100 | > 100 | > 87.8 | > 100 | > 100 | > 100
20 | COC(CC1(/C=C/O[Si](C(C)C)(C(C)C)C(C)C)C(=O)N(COCC[Si](C)(C)C)c2ccccc21)OC (stereo unspecified) | 23.6 | 60 | > 100 | > 100 | > 100 | 60.9 | > 100 | 38.3 | > 100 | > 100 | 69.4 | 71.6 | 85.2 | > 100 |  | > 100 | > 100 | 51.2 | > 100
21 | COC(=O)C(C(=O)C(=O)Nc1ccccc1C#N)c1nc2ccc([N+](=O)[O-])cc2[nH]c1=O (stereo unspecified) | > 100 | > 100 | > 100 | > 100 | > 100 | > 100 |  | > 100 | > 100 | > 100 | > 100 | > 100 | > 100 | > 100 | > 100 | > 100 | > 100 | > 100 | 
22 | O=C1C(Cl)C2(CC(/C=C/c3ccccc3O)=NN2c2cccc(S(=O)(=O)O)c2)N1c1nc2ccccc2s1 (stereo unspecified) | 14.6 | 37 | 33.2 | 27.8 | 58 | 31.1 | 35.5 |  | 51.2 | 34.6 | 30.9 | 31 | > 100 | 30.3 | 45.8 | 63.9 | 47 |  | 86.1
23 | Cc1ccc(Nc2[nH]c(=O)[nH]c(=O)c2C)cc1Cl | > 100 | > 100 | > 100 | > 100 |  | > 100 | > 100 | > 100 | > 100 | > 100 | > 100 | > 100 | > 100 | > 100 | > 100 | > 100 | > 100 | > 100 | > 100
24 | Cc1[nH]n(C(=N)N)c(=O)c1CCO | > 100 | > 100 | > 100 | > 100 | > 100 | > 100 |  | > 100 | > 100 | > 100 | > 100 | > 100 | > 100 |  |  | 3.17 | > 100 | > 100 | > 100
25 | COc1cc(/C=C/c2nc(N)nnc2C)cc(OC)c1OC | 21.7 | > 100 | > 68.1 | > 100 | > 100 | > 94.7 | 52.5 |  | > 55.4 | > 58.5 | > 50.3 | > 53.9 | > 53 | > 50.5 | > 72.9 | > 100 | > 100 | > 65.6 | 71.2
26 | COc1cc(C(=O)C2C(=O)c3ccccc3C2C2(O)c3ccccc3CC2C(O)c2cc(OC)c(OC)c(OC)c2)cc(OC)c1OC (stereo unspecified) |  | > 100 | > 100 | > 100 | > 100 | > 100 | 84.4 | > 100 | > 100 | > 100 | > 100 | > 100 | > 100 | > 100 | > 100 | > 100 | > 100 | > 100 | > 100

From PubChem BioAssay (NCI)
